The target of one assay is LISA314 WT. In words: Affinity analysis by SPR (Biacore assay), LISA314 WT. Type of assay: binding, Streptomyces avidinii. As to conditions: SPR Biacore T100, protein immobilized on Sensor Chip NTA, equilibrium value analysis, read-out: Dissociation constant: KD. On the procedure:
(§1) For affinity analysis, Biacore T100 was used. Specifically, the protein that had been fractionated by gel filtration chromatography was immobilized using Sensor Chip NTA. As a running buffer, 0.5% Tween20, HBS-P+ was used. Immobilization of the protein on nickel NTA and ligand capture were carried out according to the template program included therewith.
(§2) The amount of a ligand immobilized on a sensor chip was adjusted within the range of 1608 RU to 8042 RU, so as to suppress mass transport limitation. As analytes, biocytin and Compound 29 (the structure thereof is shown below) synthesized in Example 1 were used. It is to be noted that biocytin is a main existence form of biotin.
(§3) With regard to the concentrations of the analytes, in the case of biocytin, eight 2-fold dilution series were prepared from 1 μM, and in the case of Compound 29, twelve 2-fold dilution series were prepared from 16 μM. The measurement was carried out at a flow rate of 30 μl/min, for a contact time of 120 seconds, and for a dissociation time of 600 seconds. For the analysis of the data, sensorgrams for all concentrations were incorporated into analysis software, the equilibrium value analysis was then carried out, and the dissociation constant KD was then calculated.
Background: In SPR one partner is held on a chip, and binding of the other changes the refractive index at the surface.

The next assay concerns the target LISA314 V21 (Streptomyces avidinii, UniProt P22629, E125D/E140N/N47D/R108K/R127K/S51D/Y107S/Y46S). Briefly: Affinity analysis by SPR (Biacore assay), LISA314 V21. Type of assay: binding. Particulars: SPR Biacore T100, protein immobilized on Sensor Chip NTA, equilibrium value analysis, read-out: Dissociation constant: KD. The method, then:
as §1, §2, §3

Chain of LISA314 V21 (P22629 25-183 Y46S/N47D/S51D/Y107S/R108K/E125D/R127K/E140N limits assumed): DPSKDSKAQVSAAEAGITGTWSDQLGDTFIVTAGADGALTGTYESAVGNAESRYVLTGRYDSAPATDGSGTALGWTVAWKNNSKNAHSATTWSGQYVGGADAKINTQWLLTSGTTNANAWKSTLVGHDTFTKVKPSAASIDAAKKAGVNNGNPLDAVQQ

With `N[C@@H](CCCCNC(=O)CCCC[C@@H]1SC[C@@H]2NC(=O)N[C@@H]21)C(=O)O` [Biocytin, biocytin], the values for the dissociation constant Kd on LISA314 WT and at LISA314 V21 were 2.38 nM and 348 nM, respectively.

(Values after patent US9670255B2 (priority 2013, dated 2017).)
